{
  "source": "patent US8487098B2",
  "about": "“Synergistic combination of flumetsulam or diclosulam with isothiazolones” (Dow Global Technologies LLC, priority 2010, dated 2013)",
  "type_in_all_cases": "cell-based",
  "key": {"[1]": {"system": "Trentepohlia aurea, Tretepohlia odorata, and Calotrix parientina (Cp + To + Ta)", "test": "Algal efficacy testing, modified ASTM 5589, paint film", "settings": "4 weeks; for % inhibition: at the total conc given; for Total conc, ppm: minimum inhibitory concentration in paint", "protocol": "(§1) A single or blend of biocides was post added into white acrylic latex paint free of biocides to give a maximum total active ingredient/s concentration tested. This paint was then diluted with a biocide free acrylic latex paint to give targeted concentrations for the testing. Depending on the type of biocide blends tested, the total biocides concentrations varies from 200 to 5000 ppm. After biocides addition or dilution, each sample was hand mixed for at least a minute until uniformity is achieved. Each of the paint samples as well as a control sample (containing no biocide) were used to prepare films on black plastic-vinyl chloride/acetate copolymer panels (LENETA, Mahwah, N.J.) using a 3 mil (0.0762 mm) bird bar applicator. The panels were thoroughly dried for at least 2 days avoiding direct exposure to sunlight. Square discs (0.5 inch; 1.27 cm^2) were cut out from each panel and were used as the substrate for fungal and algal efficacy tests. This sample size allowed for an agar border when the sample disc was placed into the well of the test plate. Each sample was tested in duplicate\n(§2) The appropriate media (BOLD'S 3N for Chlorophytes, BG-11 for Cyanobacteria, and PDA for fungi) were used to support microbial growth. The test plates were maintained at room temp (25° C.-26° C.), in a cycled light-dark environment, for four weeks for algae. Plates for fungal challenge tests were maintained at 30 C for four weeks. At the end of the incubation period the samples were scored for percent area covered by visible microbial growth.\n(§3) Algal Efficacy Testing—Modified ASTM 5589\n(§4) ASTM 5589 is a standard accelerated test method for determining resistance of various coatings (including paints) to algal defacement. To accommodate for high-throughput screening, this method was scaled down from petri plates to 6-well plates. A single coupon was placed with a pair of sterile forceps at the center of the agar plug (on top) with the painted surface facing upwards. Algal inoculums were prepared by mixing equal concentrations (1×10^6 cfu/ml) and equal volumes (depending on number of samples to be inoculated) of like growing organisms.\n(§5) In Flumetsulam+various IT synergy study, three pool of mixed algae were prepared as the test inoculum, Gloeocapsa sp. and Oscillatoria sp. a mix of cyanobacteria grown on BG-11 media; Chlorella sp., Chlorella kessleri, and Nostoc commune are unicellular chlorphytes that were mixed and grown on Bold media; Trentepohlia aurea, Tretepohlia odorata, and Calotrix parientina are filamentous algae that were mixed and grown on Bold media.\n(§6) Each well that contains a tested coupon was inoculated with 400 μl of organism mixture (1×10^6 cfu/ml) making sure that the whole surface (paint film as well as the agar surrounding it) was evenly covered. The plates were incubated at room temp (25° C.-26° C.) with cyclic exposure to light (OTT-Lite model #OTL4012P, 40 Watt, 26 KLumen) and dark phases, for a period of four weeks. The total area covered was evaluated at the end of each week according to percent area covered in 5% increments.\n(§7) Synergy Index Calculation\n(§8) The SI is calculated based on F. C. Kull et.\n(§9) Qa=the concentration of Biocide A in the blend\n(§10) QA=The concentration of Biocide A as the only biocide\n(§11) Qb=The concentration of Biocide B in the blend\n(§12) QB=The concentration of Biocide B as the only biocide\n(§13) SI value of <1 in the formula indicates a synergism of the blended biocides exists.\n(§14) NE=no end point at the concentration tested that will meet the percent inhibition criteria set in each SI calculation"}, "[2]": {"system": "Chlorella sp., Chlorella kessleri, and Nostoc commune (Cs + Ck + Nc)", "test": "Algal efficacy testing, modified ASTM 5589, paint film", "settings": "4 weeks; for % inhibition: at the total conc given; for Total conc, ppm: minimum inhibitory concentration in paint", "protocol": "as §1, §2, §3, §4, §5, §6, §7, §8, §9, §10, §11, §12, §13, §14"}, "[3]": {"system": "Gloeocapsa sp. and Oscillatoria sp. (Gs + Os)", "test": "Algal efficacy testing, modified ASTM 5589, paint film", "settings": "4 weeks; for % inhibition: at the total conc given; for Total conc, ppm: minimum inhibitory concentration in paint", "protocol": "as §1, §2, §3, §4, §5\n(§15) In Diclosulam+various IT synergy study, only two pools of mixed algae were prepared; Gloeocapsa sp. and Oscillatoria sp. grown on BG-11 media and Chlorella sp., Chlorella kessleri, Nostoc commune, Trentepohlia aurea, Tretepohlia odorata, and Calotrix parientina grown on Bold media\nas §6, §7, §8, §9, §10, §11, §12, §13, §14"}, "[4]": {"system": "Alternaria alternata mixed with Trichoderma viride (AaTv)", "test": "Fungal efficacy testing, modified ASTM 5590, paint film", "settings": "4 weeks; for % inhibition: at the total conc given; for Total conc, ppm: minimum inhibitory concentration in paint", "protocol": "as §1, §2\n(§16) Fungal Efficacy Testing—Modified ASTM 5590\n(§17) ASTM 5590 is a standard accelerated test method for determining resistance of various coatings (including paints) to fungal defacement. To accommodate for high-throughput screening, this method was scaled down from petri plates to 6-well plates. To set up the test, an agar plug was placed at the bottom of each well of the sterile 6-well plate. A single coupon was placed with a pair of sterile forceps at the center of the agar plug (on top) with the painted surface facing upwards. Fungal inoculums were prepared by mixing equal concentrations (1×10^6 cfu/ml) and equal volumes (depending on number of samples to be tested) of like growing organisms. For Flumetsulam+various IT synergy study, three pools of mixed fungi were prepared as the test inoculum. Cladosporium herbarum was mixed with Aureobasidium pullulans; Aspergillus niger was mixed with Penicillium funiculosum and Alternaria alternata was mixed with Trichoderma viride. For Diclosulam+various IT synergy study, all above fungi were mixed as a single pool. Each well was inoculated with 400 μl of organism mixture (1×10^6 cfu/ml) making sure that the whole surface (paint film as well as the agar surrounding it) was evenly covered. The plates were incubated at 30° C. in presence of moisture, for a period of four weeks. The total percent area covered was evaluated and recorded at the end of each week after the 2nd week and recorded in increments of 5%.\nas §7, §8, §9, §10, §11, §12, §13, §14"}, "[5]": {"system": "Cladosporium herbarum mixed with Aureobasidium pullulans (ApCh)", "test": "Fungal efficacy testing, modified ASTM 5590, paint film", "settings": "4 weeks; for % inhibition: at the total conc given; for Total conc, ppm: minimum inhibitory concentration in paint", "protocol": "as §1, §2, §16, §17, §7, §8, §9, §10, §11, §12, §13, §14"}, "[6]": {"system": "Aspergillus niger mixed with Penicillium funiculosum (AnPf)", "test": "Fungal efficacy testing, modified ASTM 5590, paint film", "settings": "4 weeks; for % inhibition: at the total conc given; for Total conc, ppm: minimum inhibitory concentration in paint", "protocol": "as §1, §2, §16, §17, §7, §8, §9, §10, §11, §12, §13, §14"}, "[7]": {"system": "Cp + To + Ta + Cs + Ck + Nc", "test": "Algal efficacy testing, modified ASTM 5589, paint film, pool grown on Bold media", "settings": "Synergy study of Diclosulam and DCOIT, 4 weeks", "protocol": "as §1, §2, §3, §4, §15, §6, §7, §8, §9, §10, §11, §12, §13, §14"}, "[8]": {"system": "Aa + Tv + An + Pf + Ap + Ch", "test": "Fungal efficacy testing, modified ASTM 5590, paint film, single pool of all fungi", "settings": "Synergy study of Diclosulam and DCOIT, 4 weeks", "protocol": "as §1, §2, §16, §17, §7, §8, §9, §10, §11, §12, §13, §14"}, "[9]": {"settings": "Flumetsulam:BBIT synergy study, NE=no end point"}, "[10]": {"settings": "Flumetsulam:DCOIT synergy study"}, "[11]": {"settings": "minimum inhibitory concentration in paint"}, "[12]": {"settings": "Synergy study of Diclosulam and DCOIT"}},
  "data": [
    {"smiles": "CCCCn1sc2ccccc2c1=O", "note": "[BBIT, N-n-butyl-1,2-benzisothiazolin-3-one]", "values": [
      {"measurement": "% inhibition", "setting": "[1]; Flumetsulam:BBIT synergy study", "value": 0, "unit": "%"},
      {"measurement": "Total conc, ppm", "setting": "[1]; [9]", "value": 1150, "unit": "ppm"},
      {"measurement": "% inhibition", "setting": "[2]; Flumetsulam:BBIT synergy study", "value": 0, "unit": "%"},
      {"measurement": "Total conc, ppm", "setting": "[2]; Flumetsulam:BBIT synergy study", "value": 1150, "unit": "ppm"},
      {"measurement": "% inhibition", "setting": "[3]; Flumetsulam:BBIT synergy study", "value": 0, "unit": "%"},
      {"measurement": "Total conc, ppm", "setting": "[3]; Flumetsulam:BBIT synergy study", "value": 1150, "unit": "ppm"},
      {"measurement": "% inhibition", "setting": "[4]; Flumetsulam:BBIT synergy study", "value": 0, "unit": "%"},
      {"measurement": "Total conc, ppm", "setting": "[4]; [9]", "value": 1150, "unit": "ppm"},
      {"measurement": "% inhibition", "setting": "[5]; Flumetsulam:BBIT synergy study", "value": 80, "unit": "%"},
      {"measurement": "Total conc, ppm", "setting": "[5]; [9]", "value": 575, "unit": "ppm"},
      {"measurement": "% inhibition", "setting": "[6]; Flumetsulam:BBIT synergy study", "value": 0, "unit": "%"},
      {"measurement": "Total conc, ppm", "setting": "[6]; Flumetsulam:BBIT synergy study", "value": 1150, "unit": "ppm"}
    ]},
    {"smiles": "CCCCCCCCn1sc(Cl)c(Cl)c1=O", "note": "[DCOIT, 4,5-dichloro-2-n-octyl-4-isothiazolin-3-one]", "values": [
      {"measurement": "% inhibition", "setting": "[1]; [10]", "value": 100, "unit": "%"},
      {"measurement": "Total conc, ppm", "setting": "[1]; [10]", "value": 143.75, "unit": "ppm"},
      {"measurement": "% inhibition", "setting": "[2]; [10]", "value": 100, "unit": "%"},
      {"measurement": "Total conc, ppm", "setting": "[2]; [10]", "value": 1150, "unit": "ppm"},
      {"measurement": "% inhibition", "setting": "[7]; at the total conc given", "value": 100, "unit": "%"},
      {"measurement": "Total conc, ppm", "setting": "[7]; [11]", "value": 625, "unit": "ppm"},
      {"measurement": "% inhibition", "setting": "[3]; [10]", "value": 100, "unit": "%"},
      {"measurement": "Total conc, ppm", "setting": "[3]; [10]", "value": 143.75, "unit": "ppm"},
      {"measurement": "% inhibition", "setting": "[3]; [12]", "value": 100, "unit": "%"},
      {"measurement": "Total conc, ppm", "setting": "[3]; [12]", "value": 625, "unit": "ppm"},
      {"measurement": "% inhibition", "setting": "[8]; at the total conc given", "value": 80, "unit": "%"},
      {"measurement": "Total conc, ppm", "setting": "[8]; [11]", "value": 625, "unit": "ppm"},
      {"measurement": "% inhibition", "setting": "[4]; [10]", "value": 85, "unit": "%"},
      {"measurement": "Total conc, ppm", "setting": "[4]; [10]", "value": 575, "unit": "ppm"},
      {"measurement": "% inhibition", "setting": "[5]; [10]", "value": 100, "unit": "%"},
      {"measurement": "Total conc, ppm", "setting": "[5]; [10]", "value": 862.5, "unit": "ppm"},
      {"measurement": "% inhibition", "setting": "[6]; [10]", "value": 100, "unit": "%"},
      {"measurement": "Total conc, ppm", "setting": "[6]; [10]", "value": 575, "unit": "ppm"}
    ]}
  ]
}
